Measurements from patent US20200308170A1, “KRAS G12C INHIBITORS” (Mirati Therapeutics, Inc., priority 2017, published 2020).

target: T1, KRas G12C (Homo sapiens, UniProt P01116, C118S/C51S/C80L/G12C); experiment: KRas G12C Modification Assay (LCMS detection of covalent adduct); type: binding; conditions: 5 μM concentration for 3 hours; LC/MS of intact protein; higher POC = higher degree of modification
T1 construct: GDP-loaded K-Ras (1-169) G12C, C51S, C80L, C118S
Method: A 10 μL aliquot of each protein solution was then transferred to a 384 well microtiter plate. Initial compound stocks were generated at fifty times their desired final assay concentration in DMSO.
Exemplary compounds of Formula (II) were diluted 25-fold into K-Ras Assay Buffer to a final of two times their final concentration. A 10 μL aliquot of each diluted compound solution was then added to each of the protein solutions in the microtiter plate to initiate reaction. […] At each time point, the reactions were quenched with 20 μL of a 25 mM acetic acid solution. […] Once all reactions were quenched, the plates were heat sealed and the samples were injected into a LC/MS system for data acquisition.
Samples were injected in their liquid phase onto a C-3 reverse phase column to remove assay buffer and prepare the samples for mass spectrometer. The proteins were eluted from the column using an acetonitrile gradient and fed directly into the mass analyzer. Initial raw data analysis took place in Agilent MassHunter software immediately post data acquisition.
Raw data analysis of the intact protein was exclusively a deconvolution of the multiple charge states of each protein in solution using a maximum entropy deconvolution provided in Mass Hunter. To minimize complexity, only the data over limited mass ranges were considered for analysis, with a minimum of one Dalton mass step intervals. The heights of all masses identified during raw data analysis were exported to be further analyzed in Spotfire® data analysis software.
Final data analysis was a multistep process in the Spotfire® data analysis software package. Briefly, each protein mass was calculated as a percent of the total signal of that sample, that percentage was then normalized to the percentage of signal of the protein in the absence of reactive compounds. Those normalized signals were reported as normalized percent of control (POC). […] Key: “A”≤25% POC; “B”>25% POC−≤50% POC; “C”>50% POC and ND=not determined.

Row | POC (normalized percent of control; degree of covalent modification of KRas G12C) | SMILES
1 | C (“C”>50% POC) | Cc1cccc2cccc(N3CCc4c(nc(OC[C@@H]5CCCN5C)nc4N4CCN(C(=O)/C=C/C(F)(F)F)[C@@H](CC#N)C4)C3)c12 [Example 20, 2-((S)-4-(7-(8-methylnaphthalen-1-yl)-2-(((S)-1-methylpyrrolidin-2-yl)methoxy)-5,6,7,8-tetrahydropyrido[3,4-d]pyrimidin-4-yl)-1-((E)-4,4,4-trifluorobut-2-enoyl)piperazin-2-yl)acetonitrile]
2 | C (“C”>50% POC) | Cc1cccc2cccc(N3CCc4c(nc(OC[C@@H]5CCCN5C)nc4N4CCN(C(=O)/C=C/C(F)F)[C@@H](CC#N)C4)C3)c12 [Example 24, 2-((S)-1-((E)-4,4-difluorobut-2-enoyl)-4-(7-(8-methylnaphthalen-1-yl)-2-(((S)-1-methylpyrrolidin-2-yl)methoxy)-5,6,7,8-tetrahydropyrido[3,4-d]pyrimidin-4-yl)piperazin-2-yl)acetonitrile]
3 | C (“C”>50% POC) | Cc1cccc2cccc(N3CCc4c(nc(OC[C@@H]5CCCN5C)nc4N4CCN(C(=O)/C=C/CF)[C@@H](CC#N)C4)C3)c12 [Example 35, 2-((S)-1-((E)-4-fluorobut-2-enoyl)-4-(7-(8-methylnaphthalen-1-yl)-2-(((S)-1-methylpyrrolidin-2-yl)methoxy)-5,6,7,8-tetrahydropyrido[3,4-d]pyrimidin-4-yl)piperazin-2-yl)acetonitrile]
4 | C (“C”>50% POC) | Cc1cccc2cccc(N3CCc4c(nc(OC[C@@H]5CCCN5C)nc4N4CCN(C(=O)/C=C/CO)[C@@H](CC#N)C4)C3)c12 [Example 39, 2-((S)-1-((E)-4-hydroxybut-2-enoyl)-4-(7-(8-methylnaphthalen-1-yl)-2-(((S)-1-methylpyrrolidin-2-yl)methoxy)-5,6,7,8-tetrahydropyrido[3,4-d]pyrimidin-4-yl)piperazin-2-yl)acetonitrile]
5 | A (“A”≤25% POC) | C=C(OC)C(=O)N1CCN(c2nc(OC[C@@H]3CCCN3C)nc3c2CCN(c2cccc4cccc(C)c24)C3)C[C@@H]1CC#N [Example 41, 2-[(2S)-1-(2-methoxyprop-2-enoyl)-4-[7-(8-methyl-1-naphthyl)-2-[[(2S)-1-methylpyrrolidin-2-yl]methoxy]-6,8-dihydro-5H-pyrido[3,4-d]pyrimidin-4-yl]piperazin-2-yl]acetonitrile]
6 | C (“C”>50% POC) | Cc1cccc2cccc(N3CCc4c(nc(OC[C@@H]5CCCN5C)nc4N4CCN(C(=O)/C=C/c5cnn(C)c5)[C@@H](CC#N)C4)C3)c12 [Example 23, 2-((S)-1-((E)-3-(1-methyl-1H-pyrazol-4-yl)acryloyl)-4-(7-(8-methylnaphthalen-1-yl)-2-(((S)-1-methylpyrrolidin-2-yl)methoxy)-5,6,7,8-tetrahydropyrido[3,4-d]pyrimidin-4-yl)piperazin-2-yl)acetonitrile]
7 | C (“C”>50% POC) | Cc1cccc2cccc(N3CCc4c(nc(OC[C@@H]5CCCN5C)nc4N4CCN(C(=O)/C=C\C#N)[C@@H](CC#N)C4)C3)c12 [Example 31, (Z)-4-((S)-2-(cyanomethyl)-4-(7-(8-methylnaphthalen-1-yl)-2-(((S)-1-methylpyrrolidin-2-yl)methoxy)-5,6,7,8-tetrahydropyrido[3,4-d]pyrimidin-4-yl)piperazin-1-yl)-4-oxobut-2-enenitrile]

Second part, the compound before the results:

Row | SMILES | POC (normalized percent of control; degree of covalent modification of KRas G12C)
8 | Cc1cccc2cccc(N3CCc4c(nc(OC[C@@H]5CCCN5C)nc4N4CCN(C(=O)/C=C/Cn5cccn5)[C@@H](CC#N)C4)C3)c12 [Example 38, 2-((S)-1-((E)-4-(1H-pyrazol-1-yl)but-2-enoyl)-4-(7-(8-methylnaphthalen-1-yl)-2-(((S)-1-methylpyrrolidin-2-yl)methoxy)-5,6,7,8-tetrahydropyrido[3,4-d]pyrimidin-4-yl)piperazin-2-yl)acetonitrile] | C (“C”>50% POC)
9 | COC/C=C/C(=O)N1CCN(c2nc(OC[C@@H]3CCCN3C)nc3c2CCN(c2cccc(C)c2C)C3)C[C@@H]1CC#N [Example 18, 2-((S)-4-(7-(2,3-dimethylphenyl)-2-(((S)-1-methylpyrrolidin-2-yl)methoxy)-5,6,7,8-tetrahydropyrido[3,4-d]pyrimidin-4-yl)-1-((E)-4-methoxybut-2-enoyl)piperazin-2-yl)acetonitrile] | C (“C”>50% POC)
10 | Cc1cccc(N2CCc3c(nc(OC[C@@H]4CCCN4C)nc3N3CCN(C(=O)/C=C/CN4CCC(F)C4)[C@@H](CC#N)C3)C2)c1C (stereo partly drawn) [Example 5, 2-[(2S)-4-[7-(2,3-dimethylphenyl)-2-[[(2S)-1-methylpyrrolidin-2-yl]methoxy]-6,8-dihydro-5H-pyrido[3,4-d]pyrimidin-4-yl]-1-[(E)-4-(3-fluoropyrrolidin-1-yl)but-2-enoyl]piperazin-2-yl]acetonitrile] | C (“C”>50% POC)
11 | Cc1cccc2cccc(N3CCc4c(nc(OC[C@@H]5CCCN5C)nc4N4CCN(C(=O)/C=C/c5ccccn5)[C@@H](CC#N)C4)C3)c12 [Example 22, 2-((S)-4-(7-(8-methylnaphthalen-1-yl)-2-(((S)-1-methylpyrrolidin-2-yl)methoxy)-5,6,7,8-tetrahydropyrido[3,4-d]pyrimidin-4-yl)-1-((E)-3-(pyridin-2-yl)acryloyl)piperazin-2-yl)acetonitrile] | C (“C”>50% POC)
12 | C=C(OC)C(=O)N1CCN(c2nc(OC[C@@H]3CCCN3C)nc3c2CCN(c2cccc4cccc(Cl)c24)C3)C[C@@H]1CC#N [Example 43, 2-[(2S)-4-[7-(8-chloro-1-naphthyl)-2-[[(2S)-1-methylpyrrolidin-2-yl]methoxy]-6,8-dihydro-5H-pyrido[3,4-d]pyrimidin-4-yl]-1-(2-methoxyprop-2-enoyl)piperazin-2-yl]acetonitrile] | A (“A”≤25% POC)
13 | [2H]C([2H])=C([2H])C(=O)N1CCN(c2nc(OC[C@@H]3CCCN3C)nc3c2CCN(c2cccc4ccccc24)C3)C[C@@H]1CC#N [Example 4, 2-[(2S)-4-[2-[[(2S)-1-methylpyrrolidin-2-yl]methoxy]-7-(1-naphthyl)-6,8-dihydro-5H-pyrido[3,4-d]pyrimidin-4-yl]-1-(2,3,3-trideuterioprop-2-enoyl)piperazin-2-yl]acetonitrile] | C (“C”>50% POC)
